Data taken from patent publication US9302999B2, “Substituted triazoles as herbicides” (E. I. DU PONT DE NEMOURS AND COMPANY, priority 2012, dated 2016).

Experiments:
Type in all cases: in vivo
[1] = test system: sedge, umbrella (small-flower umbrella sedge Cyperus difformis); assay: Test B flooded paddy: sedge, umbrella; settings: Flood, applied to paddy water at 2-leaf stage, visually evaluated after 13 to 15 days
Procedure, shortened: (§1)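 2-leaf plants; pots flooded 3 cm over soil; compound added to paddy water, depth kept constant. Greenhouse 13–15 d. Visual rating vs controls, 0–100 scale (100 = complete control); dash = no result.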

[2] = test system: corn (Zea mays); assay: Test A pre-/postemergence: corn
Procedure, shortened: (§2)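 Rating scale 0–100 (100 = complete control), visual, ~10 days after application in the greenhouse. Applications: preemergence directed soil spray; postemergence at 1–2 leaves.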

[3] = test system: wheat (Triticum aestivum); assay: Test A pre-/postemergence: wheat
Procedure, shortened: as §2

[4] = test system: rice (Oryza sativa); assay: Test B flooded paddy: rice; settings: Flood, applied to paddy water at 2-leaf stage, visually evaluated after 13 to 15 days
Procedure, shortened: as §1

[5] = test system: foxtail, giant (giant foxtail, Setaria faberii); assay: Test A pre-/postemergence: foxtail, giant
Procedure, shortened: as §2

[6] = test system: barnyardgrass (Echinochloa crus-galli); assay: Test B flooded paddy: barnyardgrass; settings: Flood, applied to paddy water at 2-leaf stage, visually evaluated after 13 to 15 days
Procedure, shortened: as §1

[7] = test system: morningglory (Ipomoea spp.); assay: Test A pre-/postemergence: morningglory
Procedure, shortened: as §2

[8] = test system: crabgrass, large (large crabgrass, Digitaria sanguinalis); assay: Test A pre-/postemergence: crabgrass, large
Procedure, shortened: as §2

[9] = test system: barnyardgrass (Echinochloa crus-galli); assay: Test A pre-/postemergence: barnyardgrass
Procedure, shortened: as §2

[10] = test system: velvetleaf (Abutilon theophrasti); assay: Test A pre-/postemergence: velvetleaf
Procedure, shortened: as §2

[11] = test system: pigweed (Amaranthus retroflexus); assay: Test A pre-/postemergence: pigweed
Procedure, shortened: as §2

[12] = test system: ducksalad (Heteranthera limosa); assay: Test B flooded paddy: ducksalad; settings: Flood, applied to paddy water at 2-leaf stage, visually evaluated after 13 to 15 days
Procedure, shortened: as §1

[13] = Postemergence, 1000 g ai/ha, visual rating on 0 to 100 scale (0 no effect, 100 complete control), approximately ten days
[14] = Preemergence, 1000 g ai/ha, 0 to 100 scale, 0 is no effect, 100 is complete control
[15] = Postemergence, 125 g ai/ha, 0 to 100 scale, 0 is no effect, 100 is complete control
[16] = Postemergence, 500 g ai/ha, 0 to 100 scale, 0 is no effect, 100 is complete control
[17] = Preemergence, 125 g ai/ha, 0 to 100 scale where 0 is no effect and 100 is complete control
[18] = Preemergence, 500 g ai/ha, 0 to 100 scale (0 no effect, 100 complete control)

Structure (SMILES): Cc1nn(-c2ccc(F)cc2)nc1C(=O)c1ccnc(C(F)(F)F)c1 [Compound 167]
- Plant response rating, Sedge, Umbrella (0 to 100 scale, 0 is no effect, 100 is complete control) ([1]; 125 g ai/ha): 50
- Corn plant response rating [2, 13]: 30
- Plant response rating, Corn [2, 14]: 30
- Wheat plant response rating [3, 13]: 40
- Plant response rating, Wheat [3, 14]: 80
- Plant response rating, Rice (0 to 100 scale, 0 is no effect, 100 is complete control) ([4]; 125 g ai/ha): 30
- Foxtail, Giant plant response rating [5, 13]: 100
- Plant response rating, Foxtail, Giant [5, 14]: 100
- Plant response rating, Barnyardgrass (0 to 100 scale, 0 is no effect, 100 is complete control) ([6]; 125 g ai/ha): 0
- Morningglory plant response rating [7, 13]: 100
- Crabgrass, Large plant response rating [8, 13]: 100
- Plant response rating, Crabgrass, Large [8, 14]: 100
- Barnyardgrass plant response rating [9, 13]: 100
- Plant response rating, Barnyardgrass [9, 14]: 100
- Velvetleaf plant response rating [10, 13]: 50
- Plant response rating, Velvetleaf [10, 14]: 20
- Pigweed plant response rating [11, 13]: 100
- Plant response rating, Pigweed [11, 14]: 100
- Plant response rating, Ducksalad (0 to 100 scale, 0 is no effect, 100 is complete control) ([12]; 125 g ai/ha): 0

Structure (SMILES): CC(C)Oc1nn(-c2ccc(C(F)(F)F)cc2)nc1Cc1ccnc(C(F)(F)F)c1 [Compound 192]
- Plant response rating, Sedge, Umbrella (0 to 100 scale, 0 is no effect, 100 is complete control) ([1]; 250 g ai/ha): 0
- Plant response rating, Corn [2, 15]: 10
- Corn plant response rating [2, 16]: 30
- Plant response rating, Corn [2, 17]: 0
- Plant response rating, Corn [2, 18]: 0
- Plant response rating, Wheat [3, 15]: 0
- Wheat plant response rating [3, 16]: 10
- Plant response rating, Wheat [3, 17]: 0
- Plant response rating, Wheat [3, 18]: 0
- Plant response rating, Rice (0 to 100 scale, 0 is no effect, 100 is complete control) ([4]; 250 g ai/ha): 0
- Plant response rating, Foxtail, Giant [5, 15]: 10
- Foxtail, Giant plant response rating [5, 16]: 20
- Plant response rating, Foxtail, Giant [5, 17]: 0
- Plant response rating, Foxtail, Giant [5, 18]: 80
- Plant response rating, Barnyardgrass (0 to 100 scale, 0 is no effect, 100 is complete control) ([6]; 250 g ai/ha): 0
- Plant response rating, Morningglory [7, 15]: 30
- Morningglory plant response rating [7, 16]: 70
- Plant response rating, Morningglory [7, 17]: 0
- Plant response rating, Morningglory [7, 18]: 10
- Plant response rating, Crabgrass, Large [8, 15]: 10
- Crabgrass, Large plant response rating [8, 16]: 30
- Plant response rating, Crabgrass, Large [8, 17]: 0
- Plant response rating, Crabgrass, Large [8, 18]: 70
- Plant response rating, Barnyardgrass [9, 15]: 0
- Barnyardgrass plant response rating [9, 16]: 20
- Plant response rating, Barnyardgrass [9, 17]: 0
- Plant response rating, Barnyardgrass [9, 18]: 0
- Plant response rating, Velvetleaf [10, 15]: 20
- Velvetleaf plant response rating [10, 16]: 100
- Plant response rating, Velvetleaf [10, 17]: 0
- Plant response rating, Velvetleaf [10, 18]: 0
- Plant response rating, Pigweed [11, 15]: 40
- Pigweed plant response rating [11, 16]: 100
- Plant response rating, Pigweed [11, 17]: 10
- Plant response rating, Pigweed [11, 18]: 40
- Plant response rating, Ducksalad (0 to 100 scale, 0 is no effect, 100 is complete control) ([12]; 250 g ai/ha): 0
